In patent publication US8232284B2, “Heteroaryloxy quinazoline derivative” (MSD K. K., priority 2007, dated 2012):

How the values were obtained:
male beagles [1] = assay: Pharmacological Test Example 2: drug efficacy test in dogs (plasma glucose level AUC); format: in vivo; conditions: for Percentage reduction (%) in plasma glucose level AUC: male beagles fasted overnight, oral 1 mg/kg in 0.5% methyl cellulose, compared to control group up to 4 hours after administration
Procedure: (§1) From the cephalic vein of male beagles fasted overnight (10.4-13.7 kg body weight), blood was collected prior to administration, followed by oral administration of the test drug suspended in a 0.5% methyl cellulose solution (1 mg/kg in both of the compounds of Example A and Example 18), while a 0.5% methyl cellulose solution was orally administered to the control group. The blood was collected every 0.5 or 1 hour after the administration of the test drug. Plasma was separated from the obtained blood to determine a plasma glucose level using Determina-GL-E (Kyowa Medics). Percentage reductions in plasma glucose level AUC compared to the control group up to 4 hours after the administration were described below.

male beagles [2] = assay: Pharmacological Test Example 3: drug efficacy test in dogs (plasma glucose level AUC); format: in vivo; conditions: male beagles fasted overnight; oral 1 mg/kg in 0.5% methyl cellulose; compared to control group up to 4 hours after administration
Procedure: as §1, with “(8.5-13.7” for “(10.4-13.7”, “Examples 30” for “the compounds of Example A”, “31),” for “Example 18),”, “Medics).” for “Medics). Percentage reductions in plasma glucose level AUC compared to the control group up to 4 hours after the administration were described below.”
Percentage reductions in plasma glucose level AUC compared to the control group up to 4 hours after the administration were described below.

[3] = target: T1, recombinant human liver GK (Homo sapiens, UniProt P35557); assay: Glucokinase-activating effect (Thio-NADH coupled assay with G6PDH, 2.5 mM glucose); format: biochemical; conditions: comparative test in vitro, similar to pharmacological experiment 1; read-out: GK activity EC50
T1 construct: made in house; host or cells: E. coli
T1 sequence (P35557 1-466 isoform P35557-2): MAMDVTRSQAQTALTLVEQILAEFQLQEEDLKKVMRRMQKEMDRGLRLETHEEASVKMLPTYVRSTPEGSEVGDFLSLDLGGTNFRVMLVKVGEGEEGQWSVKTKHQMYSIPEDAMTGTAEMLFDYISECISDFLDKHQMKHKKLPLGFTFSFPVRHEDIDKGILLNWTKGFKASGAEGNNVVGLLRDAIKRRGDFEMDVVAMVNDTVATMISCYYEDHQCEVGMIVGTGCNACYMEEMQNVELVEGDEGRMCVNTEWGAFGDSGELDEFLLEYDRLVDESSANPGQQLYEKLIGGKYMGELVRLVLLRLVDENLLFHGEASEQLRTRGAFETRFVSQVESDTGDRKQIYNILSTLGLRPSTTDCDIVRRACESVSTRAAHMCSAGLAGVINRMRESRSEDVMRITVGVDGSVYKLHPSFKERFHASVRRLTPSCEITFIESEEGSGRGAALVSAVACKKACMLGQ
From the text: The excellent glucokinase-activating effect of the compounds of the formula (I) may be determined by a method described in literature (for example, Diabetes, Vol. 45, pp. 1671-1677, 1996), or in accordance with it.
The glucokinase activity may be determined not by directly measuring glucose-6-phosphate but by measuring the level of Thio-NADH, which is produced when a reporter enzyme, glucose-6-phosphate dehydrogenase produces phosphogluconolactone from glucose-6-phosphate, and based on the level, the degree of glucokinase activation by the compound tested may be determined
In this assay, used was a recombinant human liver GK, which was expressed by E. coli as a FLAG fusion protein therein and was purified by ANTIFLAG M2 AFFINITY GEL (Sigma).
Using a flat-bottomed 96-well plate, the assay was carried out at 30° C. 69 μl of an assay buffer (25 mM Hepes Buffer/pH=7.2, 2 mM MgCl2, 1 mM ATP, 0.5 mM TNAD, 1 mM dithiothreitol) was put into the plate, and 1 μl of a DMSO solution of the compound or DMSO alone as a control was added thereto. Next, 20 μl of an enzyme mixture (FLAG-GK, 20 U/ml G6PDH) cooled in ice was added to it, and 10 μl of a substrate, 25 mM glucose was added to it, and the reaction was initiated (final glucose concentration=2.5 mM).
After the start of the reaction, the increase in the absorbance at 405 nm was measured for 12 minutes at intervals of 30 seconds, and the increase for the first 5 minutes was used for assessing the compound tested. FLAG-GK was added so that the absorbance increase after 5 minutes in the presence of 1% DMSO could be from 0.04 to 0.06.
The OD level of the DMSO control was set as 100%; and the OD level of the test compound at different concentrations was determined. From the OD level at each concentration, Emax (%) and EC50 (μM) were computed and used as the index of the GK-activating potency of the compound.
The comparative test was conducted to compare the compound of example 18, 31 and 32 in this invention with the compound (A) in the patent document 1. The test method in vitro was similar to pharmacological experiment 1 (glucokinase-activating effect).

EC50 [3]	SMILES	drug efficacy in the dogs (male beagles [1]; in vivo tests in dogs, summary statement)	Percentage reduction (%) in plasma glucose level AUC (male beagles [1])	Percentage reduction (%) in plasma glucose level AUC (male beagles [2])
–	Cc1cnc(Nc2ncnc3ccc(Oc4ncccc4Cl)cc23)cn1 [Compound A]	no drug efficacy	−1%	−1%
30 nM	CCNCCOc1cnc(Oc2ccc3ncnc(Nc4ccn(C)n4)c3c2)c(Cl)c1.Cl [Example 18, 6-({3-chloro-5-[2-(ethylamino)ethoxy]pyridin-2-yl}oxy)-N-(1-methyl-1H-pyrazol-3-yl)quinazoline-4-amine hydrochloride]	–	26%	–
440 nM	Cc1cnc(Nc2ncnc3ccc(Oc4ccc(OCCN(C)C)cn4)cc23)cn1 [Example 31, 6-({5-[2-(dimethylamino)ethoxy]pyridin-2-yl}oxy)-N-(5-methylpyrazin-2-yl)quinazoline-4-amine]	–	–	7.9%
40 nM	CNCCOc1cnc(Oc2ccc3ncnc(Nc4cnc(C)cn4)c3c2)c(Cl)c1.Cl [Example 32, 6-({3-chloro-5-[2-(methylamino)ethoxy]pyridin-2-yl}oxy)-N-(5-methylpyrazin-2-yl)quinazoline-4-amine hydrochloride]	–	–	17.5%
